*1 amine or outer side, *2 acyl side, *3 side chain or, on linkers, in order; H or OH if unused. Where a SMILES comes first, the peptide text is derived from it. Bridges are numbered along the chain shown (N, C = ends). [ ]: non-standard residue; d: D form. X1 = CC(C)CCCCCCCCC[C@H](CC(=O)[*:1])O[*:2]
System: genes associated with moisturization in keratinocytes
Assay: Expression of genes associated with moisturization in keratinocytes cultivated in vitro (quantitative PCR)
Type: cell-based, human
Details: 0.002 mg/L and 0.01 mg/L in water
Experimental: K266 human epidermic keratinocytes were seeded in wells (50,000 cells/well) and cultivated in a Dermalife K medium (Lifeline LL-007) for 3 days at 37° C. and 5% of CO2. At the end of incubation, the culture medium was replaced by a test medium (K Dermalife supplemented with 1.5 mM CaCl2) containing or not containing (control) the mixture of arthrofactins obtained in example 1 in the form of a powder diluted to 0.1% in water or references (retinoic acid at 0.1 μM and 1 μM, or retinol at 10 μM). The cells were then incubated for 24 hours.
In parallel, normal human keratinocytes (NHK, 01.12) were seeded in wells (50,000 cells/well) and cultivated in a COMPLETE KGM medium (KGM BULLETKIT, LONZA, CC-3111) for 3 days at 37° C. and 5% of CO2. […]
The quantification of RNA and quality control were analyzed using LabChip GX (Perkin Elmer). Reverse transcription (RT) of RNA into cDNA was carried out using the Quantitect® inverse transcription kit (QIAGEN) following the manufacturer's recommendations. […]
The expression of selected transcripts was then analyzed by quantitative PCR using a LightCycler 480 Real-Time PCR System 384-well plate system (Roche) using the SYBR® Green incorporation technique (Roche). […]

CC(C)CCCCCCCCC[C@@H]1CC(=O)N[C@@H](CCC(=O)O)C(=O)N[C@@H](CC(C)C)C(=O)N[C@H](CC(C)C)C(=O)N[C@@H](C(C)C)C(=O)N[C@@H](CC(=O)O)C(=O)N[C@H](CC(C)C)C(=O)N[C@@H](CC(C)C)C(=O)O1 [Sodium Surfactin] (EL[dL]VD[dL]L; linker N-C via X1)
Expression of genes associated with moisturization in keratinocytes: lower expression

Source: patent US11872298B2, “Cosmetic use of arthrofactin” (L'OREAL, priority 2016, dated 2024)
